Results as given in patent publication US11452717B2, “Small molecule activators of nicotinamide phosphoribosyltransferase (NAMPT) and uses thereof” (Sanford Burnham Prebys Medical Discovery Institute, priority 2017, dated 2022).

Target: NAMPT enzyme (Homo sapiens (Human), UniProt P43490)
Experiment: Enzyme Assay and NMN Detection (NAMPT reaction, fluorescence detection of NMN)
Format: biochemical
Settings: Table B-2; NAMPT activation, NMN formation
Method in brief: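 Reaction in 50 mM HEPES pH 7.5, 5 mM MgCl2, 0.1% Prionex, 0.005% Tween 20, 1 mM TCEP at room temperature, with 16 nM NAMPT, 120 uM ATP, 5 uM nicotinamide, 6.25 uM PRPP, 0.04 U/ml pyrophosphatase for 2 h. Stopped with acetophenone/KOH then formic acid; NMN quantified by fluorescence (ex380/em460) against calibration curve.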

Sequence of NAMPT enzyme (P43490 whole entry, species assumed): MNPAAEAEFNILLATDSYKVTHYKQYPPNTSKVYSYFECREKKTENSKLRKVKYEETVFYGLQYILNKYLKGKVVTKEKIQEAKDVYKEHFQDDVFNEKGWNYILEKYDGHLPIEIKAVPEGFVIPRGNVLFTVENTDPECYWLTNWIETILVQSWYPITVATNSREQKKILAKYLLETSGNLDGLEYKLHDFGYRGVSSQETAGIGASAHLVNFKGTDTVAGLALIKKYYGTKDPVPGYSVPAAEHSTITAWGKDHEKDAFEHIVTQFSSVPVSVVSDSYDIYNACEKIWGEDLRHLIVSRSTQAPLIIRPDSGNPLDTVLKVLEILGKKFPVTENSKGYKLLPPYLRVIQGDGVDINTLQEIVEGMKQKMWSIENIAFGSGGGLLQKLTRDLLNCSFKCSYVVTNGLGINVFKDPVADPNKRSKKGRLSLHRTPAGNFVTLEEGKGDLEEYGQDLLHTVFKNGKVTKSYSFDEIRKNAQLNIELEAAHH

Row | EC50 [nM] | Structure (SMILES)
1 | 100 to 2000 | O=C(NCc1ccncc1)Nc1ccc(S(=O)(=O)N2Cc3ccccc3C2)cc1 [1-[4-(1,3-Dihydro-isoindole-2-sulfonyl)-phenyl]-3-pyridin-4-ylmethyl-urea]

Same assay, conditions: Table B-4; NAMPT activation, NMN formation

Row | EC50 [nM] | Structure (SMILES)
2 | 100 to 2000 | Cc1ccc2c(-c3ccc(NC(=O)NCc4cn[nH]c4)cc3)nn(C)c2c1 [1-[4-(1,6-Dimethyl-1H-indazol-3-yl)-phenyl]-3-(1H-pyrazol-4-ylmethyl)-urea]
3 | 2000 to 5000 | CC(C)CN1CCC(S(=O)(=O)c2ccc(NC(=O)NCc3cn[nH]c3)cc2)CC1 [1-[4-(1-Isobutyl-piperidine-4-sulfonyl)-phenyl]-3-(1H-pyrazol-4-ylmethyl)-urea]
4 | < 100 | CC(C)n1cc(S(=O)(=O)c2ccc(NC(=O)NCc3cn[nH]c3)cc2)cn1 [1-[4-(1-Isopropyl-1H-pyrazole-4-sulfonyl)-phenyl]-3-(1H-pyrazol-4-ylmethyl)-urea]

Same assay, conditions: Table B-5; NAMPT activation, NMN formation

Row | EC50 [nM] | Structure (SMILES)
5 | 100 to 2000 | O=C(NCc1cnco1)Nc1ccc(S(=O)(=O)C2CCN(C3CCOCC3)CC2)cc1 [1-Oxazol-5-ylmethyl-3-{4-[1-(tetrahydro-pyran-4-yl)-piperidine-4-sulfonyl]-phenyl}-urea]
6 | 100 to 2000 | Cc1ccc2c(-c3ccc(NC(=O)NCc4cnco4)cc3)nn(C)c2c1 [1-[4-(1,6-Dimethyl-1H-indazol-3-yl)-phenyl]-3-oxazol-5-ylmethyl-urea]
7 | 100 to 2000 | CC(C)n1cc(S(=O)(=O)c2ccc(NC(=O)NCc3cnco3)cc2)cn1 [1-[4-(1-Isopropyl-1H-pyrazole-4-sulfonyl)-phenyl]-3-oxazol-5-ylmethyl-urea]

Same assay, conditions: Table B-6; NAMPT activation, NMN formation

Row | Structure (SMILES) | EC50 [nM]
8 | O=C(NCc1ccncc1)Nc1ccc(S(=O)(=O)c2cncs2)cc1 [1-Pyridin-4-ylmethyl)-3-(4-(thiazol-5-ylsulfonyl)phenyl)urea] | 100 to 2000
9 | O=C(NCc1ccncc1)Nc1ccc(S(=O)(=O)c2ccccc2OC(F)(F)F)cc1 [1-Pyridin-4-ylmethyl-3-[4-(2-trifluoromethoxy-benzenesulfonyl)-phenyl]-urea] | < 100
10 | O=C(NCc1ccncc1)Nc1ccc(S(=O)(=O)c2ccccc2C(F)(F)F)cc1 [1-Pyridin-4-ylmethyl-3-[4-(2-trifluoromethyl-benzenesulfonyl)-phenyl]-urea] | 100 to 2000
11 | O=C(NCc1ccncc1)Nc1ccc(S(=O)(=O)c2ccc(OC(F)(F)F)cc2)cc1 [1-Pyridin-4-ylmethyl-3-[4-(4-trifluoromethoxy-benzenesulfonyl)-phenyl]-urea] | 100 to 2000
12 | Cc1ccccc1S(=O)(=O)c1ccc(NC(=O)NCc2ccncc2)cc1 [1-Pyridin-4-ylmethyl-3-[4-(toluene-2-sulfonyl)-phenyl]-urea] | 100 to 2000
13 | Cc1cccc(S(=O)(=O)c2ccc(NC(=O)NCc3ccncc3)cc2)c1 [1-Pyridin-4-ylmethyl-3-[4-(toluene-3-sulfonyl)-phenyl]-urea] | 100 to 2000
14 | Cc1ccc(S(=O)(=O)c2ccc(NC(=O)NCc3ccncc3)cc2)cc1 [1-Pyridin-4-ylmethyl-3-[4-(toluene-4-sulfonyl)-phenyl]-urea] | < 100
15 | Cc1ccc2c(-c3ccc(NC(=O)NCc4ccncc4)cc3)nn(C)c2c1 [1-[4-(1,6-Dimethyl-1H-indazol-3-yl)-phenyl]-3-pyridin-4-ylmethyl-urea] | 100 to 2000

Results, then the compound that gave them:

Row | EC50 [nM] | Structure (SMILES)
16 | < 100 | O=C(NCc1ccncc1)Nc1ccc(S(=O)(=O)c2cccc(OC(F)(F)F)c2)cc1 [1-Pyridin-4-ylmethyl-3-[4-(3-trifluoromethoxy-benzenesulfonyl)-phenyl]-urea]
17 | 2000 to 5000 | O=C(NCc1ccncc1)Nc1ccc(S(=O)(=O)c2ncccn2)cc1 [1-Pyridin-4-ylmethyl-3-[4-(pyrimidine-2-sulfonyl)-phenyl]-urea]
18 | 2000 to 5000 | CC(C)CN1CCC(S(=O)(=O)c2ccc(NC(=O)NCc3ccncc3)cc2)CC1 [1-[4-(1-Isobutyl-piperidine-4-sulfonyl)-phenyl]-3-pyridin-4-ylmethyl-urea]
19 | < 100 | CC(C)n1cc(S(=O)(=O)c2ccc(NC(=O)NCc3ccncc3)cc2)cn1 [1-[4-(1-Isopropyl-1H-pyrazole-4-sulfonyl)-phenyl]-3-pyridin-4-ylmethyl-urea]
